From ChEMBL document CHEMBL1201862, “PubChem BioAssay data set” (2004)
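Where inhibition never reached the appropriate level, the endpoint shown equals the highest concentration tested. Otherwise, values were interpolated linearly from a five-concentration, 48-hour dose response in 96-well plates. GI50 marks 50% less growth.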 Calls of active or inactive are those of the source. Rule as the data show it: active = GI50 up to about 1.1 µM and inactive = higher.

Columns and labels:
Assay in all cases: NCI tumour cell line growth inhibition, 48 h
A498 = system: A498
A549 = system: A549
COLO 205 = system: COLO 205
HCT-15 = system: HCT-15
HT-29 = system: HT-29
K562 = system: K562
MOLT-4 = system: MOLT-4
Malme-3M = system: Malme-3M
NCI-H23 = system: NCI-H23
NCI-H522 = system: NCI-H522
OVCAR-5 = system: OVCAR-5
OVCAR-8 = system: OVCAR-8
RPMI-8226 = system: RPMI-8226
RXF 393 = system: RXF 393
SF-268 = system: SF-268
SK-MEL-2 = system: SK-MEL-2
SK-OV-3 = system: SK-OV-3
SNB-75 = system: SNB-75
SW-620 = system: SW-620
UO-31 = system: UO-31

CO/C=C1\OC(=O)C=C1OC
GI50 (A498): > 100 µM (inactive) | GI50 (A549): > 100 µM (inactive) | GI50 (COLO 205): > 100 µM (inactive) | GI50 (HCT-15): > 100 µM | GI50 (HT-29): > 100 µM (inactive) | GI50 (K562): > 100 µM (inactive) | GI50 (MOLT-4): > 100 µM (inactive) | GI50 (Malme-3M): > 100 µM (inactive) | GI50 (NCI-H23): > 100 µM (inactive) | GI50 (NCI-H522): > 100 µM (inactive) | GI50 (OVCAR-5): > 100 µM (inactive) | GI50 (OVCAR-8): > 100 µM (inactive) | GI50 (RPMI-8226): > 100 µM (inactive) | GI50 (RXF 393): > 100 µM (inactive) | GI50 (SF-268): > 100 µM (inactive) | GI50 (SK-MEL-2): > 100 µM (inactive) | GI50 (SK-OV-3): > 100 µM (inactive) | GI50 (SNB-75): > 100 µM (inactive) | GI50 (SW-620): > 100 µM (inactive) | GI50 (UO-31): > 100 µM (inactive)

CC1(C)CCC(C)(C)c2c1ccc(O)c2Cc1c(O)ccc2c1C(C)(C)CCC2(C)C
GI50 (A498): 1.79 µM (inactive) | GI50 (A549): 2.27 µM (inactive) | GI50 (COLO 205): 2.13 µM (inactive) | GI50 (HCT-15): 1.92 µM | GI50 (HT-29): 2.19 µM (inactive) | GI50 (K562): 2.19 µM (inactive) | GI50 (MOLT-4): 2.11 µM (inactive) | GI50 (Malme-3M): 2.7 µM (inactive) | GI50 (NCI-H23): 2.04 µM (inactive) | GI50 (NCI-H522): 1.97 µM (inactive) | GI50 (OVCAR-5): 2.25 µM (inactive) | GI50 (OVCAR-8): 2.13 µM (inactive) | GI50 (RPMI-8226): 1.87 µM (inactive) | GI50 (RXF 393): 1.87 µM (inactive) | GI50 (SF-268): 2.47 µM (inactive) | GI50 (SK-MEL-2): 1.65 µM (inactive) | GI50 (SK-OV-3): 2.3 µM (inactive) | GI50 (SNB-75): 2.01 µM (inactive) | GI50 (SW-620): 2.18 µM (inactive) | GI50 (UO-31): 1.92 µM (inactive)

C=CCN(N=O)C(=O)N(CCC)CCCCC(NC(C)=O)C(=O)NCc1ccccc1 (stereo not given)
GI50 (A498): > 100 µM (inactive) | GI50 (A549): > 100 µM (inactive) | GI50 (COLO 205): > 100 µM (inactive) | GI50 (HCT-15): > 100 µM | GI50 (HT-29): 29.2 µM (inactive) | GI50 (K562): 51.6 µM (inactive) | GI50 (MOLT-4): 22.5 µM (inactive) | GI50 (Malme-3M): > 100 µM (inactive) | GI50 (NCI-H23): > 100 µM (inactive) | GI50 (NCI-H522): 73.6 µM (inactive) | GI50 (OVCAR-5): > 100 µM (inactive) | GI50 (OVCAR-8): > 100 µM (inactive) | GI50 (RPMI-8226): 26.9 µM (inactive) | GI50 (RXF 393): 38.1 µM (inactive) | GI50 (SF-268): > 100 µM (inactive) | GI50 (SK-MEL-2): > 100 µM (inactive) | GI50 (SK-OV-3): > 100 µM (inactive) | GI50 (SNB-75): 71.8 µM (inactive) | GI50 (SW-620): > 100 µM (inactive) | GI50 (UO-31): 88.1 µM (inactive)

O=C1NCN(c2ccccc2)C12CCN(CCCSc1ccc(F)cc1)CC2
GI50 (A498): 11.4 µM (inactive) | GI50 (A549): 33.1 µM (inactive) | GI50 (COLO 205): 1.51 µM (inactive) | GI50 (HCT-15): 31.1 µM | GI50 (HT-29): 3.85 µM (inactive) | GI50 (K562): 19.5 µM (inactive) | GI50 (MOLT-4): 12.2 µM (inactive) | GI50 (Malme-3M): 21.2 µM (inactive) | GI50 (NCI-H23): 27.7 µM (inactive) | GI50 (NCI-H522): > 83.9 µM (inactive) | GI50 (OVCAR-5): 16.9 µM (inactive) | GI50 (OVCAR-8): > 100 µM (inactive) | GI50 (RPMI-8226): 18.6 µM (inactive) | GI50 (RXF 393): > 42 µM (inactive) | GI50 (SF-268): 28.8 µM (inactive) | GI50 (SK-MEL-2): 15.1 µM (inactive) | GI50 (SK-OV-3): > 100 µM (inactive) | GI50 (SNB-75): 3.72 µM (inactive) | GI50 (SW-620): > 49.1 µM (inactive) | GI50 (UO-31): 48.5 µM (inactive)

C=CCOC1=C(OCC=C)C(C2COC(C)(C)O2)OC1=O (stereo not given)
GI50 (A498): > 100 µM (inactive) | GI50 (A549): > 100 µM (inactive) | GI50 (COLO 205): > 100 µM (inactive) | GI50 (HCT-15): > 100 µM | GI50 (HT-29): > 100 µM (inactive) | GI50 (K562): 75.5 µM (inactive) | GI50 (MOLT-4): > 100 µM (inactive) | GI50 (Malme-3M): > 100 µM (inactive) | GI50 (NCI-H23): > 100 µM (inactive) | GI50 (NCI-H522): 22.1 µM (inactive) | GI50 (OVCAR-5): > 100 µM (inactive) | GI50 (OVCAR-8): > 100 µM (inactive) | GI50 (RPMI-8226): 45.9 µM (inactive) | GI50 (RXF 393): > 100 µM (inactive) | GI50 (SF-268): > 100 µM (inactive) | GI50 (SK-MEL-2): > 100 µM (inactive) | GI50 (SK-OV-3): > 100 µM (inactive) | GI50 (SNB-75): > 100 µM (inactive) | GI50 (SW-620): > 100 µM (inactive) | GI50 (UO-31): > 100 µM (inactive)

O=C(O)CNS(=O)(=O)c1ccc(NC(=O)Nc2ccccc2)cc1
GI50 (A498): > 100 µM (inactive) | GI50 (A549): > 100 µM (inactive) | GI50 (COLO 205): > 100 µM (inactive) | GI50 (HCT-15): > 100 µM | GI50 (HT-29): > 100 µM (inactive) | GI50 (K562): > 100 µM (inactive) | GI50 (MOLT-4): > 100 µM (inactive) | GI50 (Malme-3M): > 100 µM (inactive) | GI50 (NCI-H23): > 100 µM (inactive) | GI50 (NCI-H522): > 100 µM (inactive) | GI50 (OVCAR-5): > 100 µM (inactive) | GI50 (OVCAR-8): > 100 µM (inactive) | GI50 (RPMI-8226): > 100 µM (inactive) | GI50 (RXF 393): > 100 µM (inactive) | GI50 (SF-268): > 100 µM (inactive) | GI50 (SK-MEL-2): > 100 µM (inactive) | GI50 (SK-OV-3): > 100 µM (inactive) | GI50 (SNB-75): > 100 µM (inactive) | GI50 (SW-620): > 100 µM (inactive) | GI50 (UO-31): > 100 µM (inactive)

COC(=O)C1CC=C(SC(=O)c2ccccc2)N1C(=O)c1ccccc1 (stereo not given)
GI50 (A498): > 100 µM (inactive) | GI50 (A549): > 100 µM (inactive) | GI50 (COLO 205): > 100 µM (inactive) | GI50 (HCT-15): > 100 µM | GI50 (HT-29): > 100 µM (inactive) | GI50 (K562): > 100 µM (inactive) | GI50 (MOLT-4): > 100 µM (inactive) | GI50 (Malme-3M): > 100 µM (inactive) | GI50 (NCI-H23): > 100 µM (inactive) | GI50 (NCI-H522): > 100 µM (inactive) | GI50 (OVCAR-5): > 100 µM (inactive) | GI50 (OVCAR-8): > 100 µM (inactive) | GI50 (RPMI-8226): > 100 µM (inactive) | GI50 (RXF 393): > 100 µM (inactive) | GI50 (SF-268): > 100 µM (inactive) | GI50 (SK-MEL-2): > 100 µM (inactive) | GI50 (SK-OV-3): > 100 µM (inactive) | GI50 (SNB-75): 76 µM (inactive) | GI50 (SW-620): > 100 µM (inactive) | GI50 (UO-31): > 100 µM (inactive)

CN(C)CCNC(=O)c1cccc2[nH]c(-c3ccc(Cl)cc3)nc12
GI50 (A498): 10.7 µM (inactive) | GI50 (A549): 3.66 µM (inactive) | GI50 (COLO 205): 2.97 µM (inactive) | GI50 (HCT-15): 4.99 µM | GI50 (HT-29): 4.24 µM (inactive) | GI50 (K562): 2.93 µM (inactive) | GI50 (MOLT-4): 2.03 µM (inactive) | GI50 (Malme-3M): 6.82 µM (inactive) | GI50 (NCI-H23): 7.41 µM (inactive) | GI50 (NCI-H522): 6.14 µM (inactive) | GI50 (OVCAR-5): 10.3 µM (inactive) | GI50 (OVCAR-8): 4.61 µM (inactive) | GI50 (RPMI-8226): 2.76 µM (inactive) | GI50 (RXF 393): 8.57 µM (inactive) | GI50 (SF-268): 12.7 µM (inactive) | GI50 (SK-MEL-2): 13.4 µM (inactive) | GI50 (SK-OV-3): 11.4 µM (inactive) | GI50 (SNB-75): 4.4 µM (inactive) | GI50 (SW-620): 3.96 µM (inactive) | GI50 (UO-31): 2.69 µM (inactive)

Clc1nc(Cl)nc(Nc2cccc3ccccc23)n1
GI50 (A498): > 10 µM (inactive) | GI50 (A549): > 10 µM (inactive) | GI50 (COLO 205): > 10 µM (inactive) | GI50 (HCT-15): > 10 µM | GI50 (HT-29): > 10 µM (inactive) | GI50 (K562): > 10 µM (inactive) | GI50 (MOLT-4): > 10 µM (inactive) | GI50 (Malme-3M): > 10 µM (inactive) | GI50 (NCI-H23): > 10 µM (inactive) | GI50 (NCI-H522): > 10 µM (inactive) | GI50 (OVCAR-5): > 10 µM (inactive) | GI50 (OVCAR-8): > 10 µM (inactive) | GI50 (RPMI-8226): > 10 µM (inactive) | GI50 (RXF 393): > 10 µM (inactive) | GI50 (SF-268): > 10 µM (inactive) | GI50 (SK-MEL-2): > 10 µM (inactive) | GI50 (SK-OV-3): > 10 µM (inactive) | GI50 (SNB-75): > 10 µM (inactive) | GI50 (SW-620): > 10 µM (inactive) | GI50 (UO-31): > 10 µM (inactive)

C=CS(=O)(=O)c1c2cc(OC)ccc2nc2ccc(OC)cc12
GI50 (A498): 12.7 µM (inactive) | GI50 (A549): 17.1 µM (inactive) | GI50 (COLO 205): 4.34 µM (inactive) | GI50 (HCT-15): 3.31 µM | GI50 (HT-29): 2.54 µM (inactive) | GI50 (K562): 4.39 µM (inactive) | GI50 (MOLT-4): 2.32 µM (inactive) | GI50 (Malme-3M): 2.04 µM (inactive) | GI50 (NCI-H23): 4.02 µM (inactive) | GI50 (NCI-H522): 1.73 µM (inactive) | GI50 (OVCAR-5): 6.14 µM (inactive) | GI50 (OVCAR-8): 3.6 µM (inactive) | GI50 (RPMI-8226): 2.37 µM (inactive) | GI50 (RXF 393): 3.99 µM (inactive) | GI50 (SF-268): 8.57 µM (inactive) | GI50 (SK-MEL-2): 19 µM (inactive) | GI50 (SK-OV-3): 17.7 µM (inactive) | GI50 (SNB-75): 12.4 µM (inactive) | GI50 (SW-620): 3.12 µM (inactive) | GI50 (UO-31): 3.08 µM (inactive)
